Source: patent publication US12589087B2, “Enantiomer selective action on neurotransmission” (The Board of Trustees of the Leland Stanford Junior …, priority 2021, dated 2026)

How the values were obtained:
mGluR5 = target: T1, mGluR5 (Homo sapiens, UniProt P41594); experiment: radioligand binding assay, recombinant CHO-K1 cells
T1 construct: host or cells: CHO-K1 cells
Procedure: Nonspecific AMPA, kainate and NMDA binding assays were performed by Eurofins Discovery (Cerep) using rat cerebral cortex membranes and radiolabeled [^3H]AMPA, [^3H]kainic acid and [^3H]CGP 39653, respectively. All compounds were tested at a single concentration of 100 uM in triplicate. mGluR1, mGluR2, mGluR5 and GABAB binding assays were performed by Eurofins Discovery. mGluR1 assay was performed using rat cerebellum membranes and radiolabeled [^3H]quisqalic acid. mGluR2 assay was performed using recombinant Chem-1 cells and [^3H]LY341495. mGluR5 and GABAB binding assays were performed using recombinant CHO-K1 cells and […], respectively. All compounds were tested at a single concentration of 100 uM in triplicate.
(§1) All receptor assays were performed exactly as described in Example 1. Functional assays of all GABAA, NMDA (GluN2A-GluN2D) and AMPA (GluA2) receptor subunits were performed by SB Drug Discovery as a part of their CNS discovery panel using FLIPR technology. All compounds were tested at 7 concentrations in triplicate and EC50/IC50 was determined where applicable. Functional GABAB assay was performed by Eurofins Discovery (Cerep) using Ca^2+-dependent fluorimetry in RBL cells expressing human GABAB (B1/B2) receptor. All compounds were tested at a single concentration of 100 uM in triplicate. Nonspecific AMPA, kainate and NMDA binding assays were performed by Eurofins Discovery (Cerep) using rat cerebral cortex membranes and radiolabeled [^3H]AMPA, [^3H]kainic acid and [^3H]CGP 39653, respectively. All compounds were tested at a single concentration of 100 uM in triplicate. mGluR1, mGluR2, mGluR5 and GABAB binding assays were performed by Eurofins Discovery. All compounds were tested at a single concentration of 100 uM in triplicate.

[1] = target: T2, human glutamine synthetase (Homo sapiens, UniProt P15104); experiment: Catalysis of 2MeGlu C5-amidation by glutamine synthetase; format: biochemical
T2 construct: purchased Abcam ab222354
T2 sequence (P15104 whole entry): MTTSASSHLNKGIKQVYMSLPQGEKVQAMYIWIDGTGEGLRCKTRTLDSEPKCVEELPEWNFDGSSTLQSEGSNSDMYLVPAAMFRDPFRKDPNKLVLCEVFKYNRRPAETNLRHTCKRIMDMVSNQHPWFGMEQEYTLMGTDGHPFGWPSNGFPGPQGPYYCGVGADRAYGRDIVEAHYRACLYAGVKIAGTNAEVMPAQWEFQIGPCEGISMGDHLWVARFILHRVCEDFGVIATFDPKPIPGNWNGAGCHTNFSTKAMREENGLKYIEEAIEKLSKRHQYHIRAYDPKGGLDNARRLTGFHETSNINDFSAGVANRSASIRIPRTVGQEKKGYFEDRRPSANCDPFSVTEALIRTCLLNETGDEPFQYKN
Procedure: The procedure was adapted from an existing protocol. To a reaction mixture in a 1.5 mL microcentrifuge tube containing 10 mM substrate, 10 mM ATP, 20 mM MgCl2, 40 mM NH4Cl, 25 mM 2-mercaptoethanol in 100 mM imidazole-HCl buffer pH 7.0, recombinant human glutamine synthetase (final concentration: 5 ng/mL) was added. The tubes were incubated in a preheated thermomixer at 37° C. and shaken at 600 rpm (30 s on, 30 s off). 5 μL aliquots were collected in triplicate every 5 min and immediately diluted with 195 μL of cold 60% ACN containing 10 μM Glu-d5 and Gln-d5 as internal standards in a 96 well plate. After collecting all samples, 200 μL of ACN was added to all wells and the plate was shaken at 1000 rpm for 5 min at room temperature, and then stored at −80° C. until analysis.

C57Bl/6 mice = format: in vivo; conditions: for distance moved in the novel cage: single 100, 300, or 900 mg/kg IP, dose- and time-dependent
Procedure: Dosing: (R)-2MeGlu (30, 100, 300, or 900 mg/kg), (S)-2MeGlu (30, 100, 300, or 900 mg/kg), rac-2MeGln (30, 100, 300, or 900 mg/kg) and vehicle (PBS) were administered at 10 ml/kg IP dosing volume. Three mice were dosed once with the assigned drug (100, 300, or 900 mg/kg) or vehicle and immediately placed in a new cage for novel cage observation. Subsequently, six mice were dosed once with the assigned drug (30 or 100 mg/kg) or vehicle and tested by SHIRPA, activity chamber, and then hot plate tests.
The mouse was dosed and immediately placed in the center of a clean, Innovive disposable rat cage with bedding (dimensions: 17″L×13.4″W×7.8″H) and allowed to move freely while being tracked automatically. Mice were monitored with Ethovision XT tracking software for the distance moved and average velocity during the 60-minute trial. They were returned to their home cage after the test. A new cage was used for each mouse.
Exploratory behavioral tests were performed exactly as previously described by us using 2-month-old C57Bl/6 male mice, Example 1. First, we assessed safety and tolerability of acute exposure to 4APA enantiomers in 22 mice by novel cage observation at 100, 300, or 900 mg/kg IP compared to vehicle (PBS) IP (n=3 or 4 mice per group without sample calculation, based on our previous study. Next, we evaluated 24 drug naïve mice with a 23-measure battery of neurologic dysfunction in mice (SHIRPA) (Rogers et al., 2001), automated activity chamber assessment, and hot plate latency acutely following 30 or 100 mg/kg IP compared to vehicle IP (n=4 or 5 mice per group). No exclusion criteria were predetermined and no randomization was performed to allocate subjects in the study.

GABAA α6β1γ2 = GABAA α6β1γ2 (Homo sapiens, UniProt P18505+Q16445); experiment: FLIPR functional assay, HEK 293 cells (agonist/PAM/antagonist); format: cell-based; conditions: top concentration 1 mM, read-out: EC50, functional agonist receptor assay
GABAA α6β1γ2, sequence (Q16445 20-453): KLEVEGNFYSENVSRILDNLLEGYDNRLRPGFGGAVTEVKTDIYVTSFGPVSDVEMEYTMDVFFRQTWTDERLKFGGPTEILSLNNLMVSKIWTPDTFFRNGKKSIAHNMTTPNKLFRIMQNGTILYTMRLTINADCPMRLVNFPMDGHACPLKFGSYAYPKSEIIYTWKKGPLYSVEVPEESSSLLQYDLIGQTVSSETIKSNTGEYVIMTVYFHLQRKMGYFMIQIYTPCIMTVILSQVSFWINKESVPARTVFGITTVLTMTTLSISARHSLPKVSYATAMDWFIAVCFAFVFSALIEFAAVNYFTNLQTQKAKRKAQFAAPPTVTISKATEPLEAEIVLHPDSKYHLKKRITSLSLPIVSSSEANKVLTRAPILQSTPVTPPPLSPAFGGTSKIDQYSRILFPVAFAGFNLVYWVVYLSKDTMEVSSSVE
GABAA α6β1γ2, sequence (P18505 26-474): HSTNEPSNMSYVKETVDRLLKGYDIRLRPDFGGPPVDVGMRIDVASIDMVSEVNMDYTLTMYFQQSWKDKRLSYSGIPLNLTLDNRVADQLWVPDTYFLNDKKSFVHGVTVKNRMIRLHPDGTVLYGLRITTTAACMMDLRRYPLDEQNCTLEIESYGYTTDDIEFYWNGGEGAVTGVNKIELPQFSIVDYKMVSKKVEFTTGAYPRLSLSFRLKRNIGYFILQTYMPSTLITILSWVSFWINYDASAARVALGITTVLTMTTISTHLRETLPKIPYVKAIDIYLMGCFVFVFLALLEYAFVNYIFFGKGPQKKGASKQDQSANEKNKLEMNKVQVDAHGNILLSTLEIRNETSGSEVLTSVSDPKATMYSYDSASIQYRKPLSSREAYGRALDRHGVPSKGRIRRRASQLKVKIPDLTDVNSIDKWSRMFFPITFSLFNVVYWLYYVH
GABAA α6β1γ2, sequence (P18507 40-475 partner): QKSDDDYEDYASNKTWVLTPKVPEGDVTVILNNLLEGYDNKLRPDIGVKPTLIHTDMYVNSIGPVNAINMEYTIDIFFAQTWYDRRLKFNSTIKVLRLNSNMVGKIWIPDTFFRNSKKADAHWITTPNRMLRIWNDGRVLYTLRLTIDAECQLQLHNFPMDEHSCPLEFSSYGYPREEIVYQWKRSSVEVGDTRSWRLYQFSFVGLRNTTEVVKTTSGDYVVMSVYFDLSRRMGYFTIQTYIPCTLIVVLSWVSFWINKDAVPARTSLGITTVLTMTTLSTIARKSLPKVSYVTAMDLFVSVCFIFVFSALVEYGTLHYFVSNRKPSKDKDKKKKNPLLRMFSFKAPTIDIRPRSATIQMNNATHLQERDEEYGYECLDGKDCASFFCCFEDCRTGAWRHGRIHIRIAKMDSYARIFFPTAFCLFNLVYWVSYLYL
Procedure: (§2) Functional assays of all GABAA, NMDA (GluN2A-GluN2D) and AMPA (GluA2) receptor subunits were performed by SB Drug Discovery as a part of their CNS discovery panel using FLIPR technology. Briefly, receptor-expressing HEK 293 cell lines were incubated in a red membrane potential dye in HEPES:HBSS pH 7.4 buffer and the fluorescence (λex: 488, λex: 510-570) was monitored over time as the test compounds and/or reference compounds were added to the solution. In agonist assay, only test compounds were added. In positive allosteric modulator assay, cells were preincubated with test compounds and then low concentration (approximately EC20) of an appropriate agonist was added. In antagonist assay, cells were preincubated with test compounds and then high concentration (approximately EC80) of an appropriate agonist was added. For GABAA assays, GABA was used as the agonist, picrotoxin was used as the reference antagonist and allopregnanolone was used as the reference positive allosteric modulator (PAM). For NMDA assays, a mixture of glutamate, glycine and CaCl2 was used as the agonist, MK801 was the reference antagonist and pregnenolone sulfate or GNE 9278 were used as reference PAMs. For AMPA assays, glutamate was used as the agonist, CNQX was the reference antagonist and cyclothiazide was used as the reference PAM. All compounds were tested at 7 concentration points in triplicate and EC50/IC50 was determined where applicable. Functional GABAB assay was performed by Eurofins Discovery (Cerep) using Ca^2+-dependent fluorimetry in RBL cells expressing human GABAB (B1/B2) receptor. All compounds were tested at a single concentration of 100 uM in triplicate.
as §1

GABAA α3β3γ2 = target: T3, GABAA α3β3γ2 (Homo sapiens, UniProt P18507+P28472+P34903); experiment: as above; format: cell-based; conditions: top concentration 1 mM; for EC50: read-out: EC50, functional agonist receptor assay
T3 construct: host or cells: HEK 293 (stably expressing)
T3 sequence (P34903 29-492): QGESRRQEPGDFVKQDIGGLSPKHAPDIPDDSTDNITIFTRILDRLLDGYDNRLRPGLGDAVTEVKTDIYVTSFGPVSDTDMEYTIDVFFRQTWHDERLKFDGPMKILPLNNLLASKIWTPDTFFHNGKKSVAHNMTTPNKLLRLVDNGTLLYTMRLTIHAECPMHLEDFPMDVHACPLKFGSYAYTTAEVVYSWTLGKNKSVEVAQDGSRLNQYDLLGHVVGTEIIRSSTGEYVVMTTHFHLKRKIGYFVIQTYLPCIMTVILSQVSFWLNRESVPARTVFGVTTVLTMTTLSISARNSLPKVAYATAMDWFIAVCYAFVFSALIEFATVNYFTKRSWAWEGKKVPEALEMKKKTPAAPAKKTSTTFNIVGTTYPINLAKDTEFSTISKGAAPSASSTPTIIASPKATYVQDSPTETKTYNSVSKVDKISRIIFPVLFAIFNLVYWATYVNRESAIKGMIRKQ
T3 sequence (P28472 26-473): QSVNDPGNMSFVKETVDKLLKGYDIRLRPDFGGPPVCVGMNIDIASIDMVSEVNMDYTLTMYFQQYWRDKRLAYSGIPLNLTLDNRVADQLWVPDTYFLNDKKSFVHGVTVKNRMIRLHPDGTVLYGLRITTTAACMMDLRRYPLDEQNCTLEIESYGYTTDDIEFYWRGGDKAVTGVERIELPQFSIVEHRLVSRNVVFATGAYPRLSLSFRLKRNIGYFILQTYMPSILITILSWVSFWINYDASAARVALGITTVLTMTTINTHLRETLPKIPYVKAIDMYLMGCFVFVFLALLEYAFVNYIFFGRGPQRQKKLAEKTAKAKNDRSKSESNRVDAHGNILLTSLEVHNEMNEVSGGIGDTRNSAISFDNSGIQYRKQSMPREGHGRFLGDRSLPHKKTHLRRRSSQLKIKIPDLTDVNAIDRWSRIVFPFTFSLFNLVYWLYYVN
T3 sequence (P18507 40-475): as the sequence (P18507 40-475 partner) above
Procedure: as §2, §1

GABAA α2β2γ2 = target: T4, GABAA α2β2γ2 (Homo sapiens, UniProt P18507+P47869+P47870); experiment: as above; format: cell-based; conditions: top concentration 1 mM, read-out: EC50, functional agonist receptor assay
T4 construct: host or cells: HEK 293 (stably expressing)
T4 sequence (P47869 29-451): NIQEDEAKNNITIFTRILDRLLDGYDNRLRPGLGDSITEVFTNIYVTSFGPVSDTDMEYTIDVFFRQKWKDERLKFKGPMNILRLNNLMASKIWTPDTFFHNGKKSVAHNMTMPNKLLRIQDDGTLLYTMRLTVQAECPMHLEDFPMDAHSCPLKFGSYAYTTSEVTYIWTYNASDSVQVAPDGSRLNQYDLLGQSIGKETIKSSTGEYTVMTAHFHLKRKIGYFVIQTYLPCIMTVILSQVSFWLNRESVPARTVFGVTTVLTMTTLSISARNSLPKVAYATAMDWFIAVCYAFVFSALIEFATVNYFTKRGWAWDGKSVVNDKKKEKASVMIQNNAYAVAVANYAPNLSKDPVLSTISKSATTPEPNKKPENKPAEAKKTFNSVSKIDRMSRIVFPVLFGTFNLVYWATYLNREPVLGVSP
T4 sequence (P47870 25-512 limits assumed): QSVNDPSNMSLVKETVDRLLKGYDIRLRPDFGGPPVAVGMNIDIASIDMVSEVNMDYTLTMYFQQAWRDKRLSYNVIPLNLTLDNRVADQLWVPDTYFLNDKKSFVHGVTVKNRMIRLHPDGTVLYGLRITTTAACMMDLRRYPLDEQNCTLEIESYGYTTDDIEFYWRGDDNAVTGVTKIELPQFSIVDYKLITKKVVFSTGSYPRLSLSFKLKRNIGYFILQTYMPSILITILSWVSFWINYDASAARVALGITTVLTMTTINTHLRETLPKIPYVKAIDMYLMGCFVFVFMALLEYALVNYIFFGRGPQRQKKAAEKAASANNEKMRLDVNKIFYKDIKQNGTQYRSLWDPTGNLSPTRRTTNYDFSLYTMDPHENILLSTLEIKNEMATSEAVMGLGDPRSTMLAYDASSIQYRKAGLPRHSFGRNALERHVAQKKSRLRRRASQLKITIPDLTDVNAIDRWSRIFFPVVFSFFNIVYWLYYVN
T4 sequence (P18507 40-475): as the sequence (P18507 40-475 partner) above
Procedure: as §2, §1

T1 sequence (P41594 21-1212): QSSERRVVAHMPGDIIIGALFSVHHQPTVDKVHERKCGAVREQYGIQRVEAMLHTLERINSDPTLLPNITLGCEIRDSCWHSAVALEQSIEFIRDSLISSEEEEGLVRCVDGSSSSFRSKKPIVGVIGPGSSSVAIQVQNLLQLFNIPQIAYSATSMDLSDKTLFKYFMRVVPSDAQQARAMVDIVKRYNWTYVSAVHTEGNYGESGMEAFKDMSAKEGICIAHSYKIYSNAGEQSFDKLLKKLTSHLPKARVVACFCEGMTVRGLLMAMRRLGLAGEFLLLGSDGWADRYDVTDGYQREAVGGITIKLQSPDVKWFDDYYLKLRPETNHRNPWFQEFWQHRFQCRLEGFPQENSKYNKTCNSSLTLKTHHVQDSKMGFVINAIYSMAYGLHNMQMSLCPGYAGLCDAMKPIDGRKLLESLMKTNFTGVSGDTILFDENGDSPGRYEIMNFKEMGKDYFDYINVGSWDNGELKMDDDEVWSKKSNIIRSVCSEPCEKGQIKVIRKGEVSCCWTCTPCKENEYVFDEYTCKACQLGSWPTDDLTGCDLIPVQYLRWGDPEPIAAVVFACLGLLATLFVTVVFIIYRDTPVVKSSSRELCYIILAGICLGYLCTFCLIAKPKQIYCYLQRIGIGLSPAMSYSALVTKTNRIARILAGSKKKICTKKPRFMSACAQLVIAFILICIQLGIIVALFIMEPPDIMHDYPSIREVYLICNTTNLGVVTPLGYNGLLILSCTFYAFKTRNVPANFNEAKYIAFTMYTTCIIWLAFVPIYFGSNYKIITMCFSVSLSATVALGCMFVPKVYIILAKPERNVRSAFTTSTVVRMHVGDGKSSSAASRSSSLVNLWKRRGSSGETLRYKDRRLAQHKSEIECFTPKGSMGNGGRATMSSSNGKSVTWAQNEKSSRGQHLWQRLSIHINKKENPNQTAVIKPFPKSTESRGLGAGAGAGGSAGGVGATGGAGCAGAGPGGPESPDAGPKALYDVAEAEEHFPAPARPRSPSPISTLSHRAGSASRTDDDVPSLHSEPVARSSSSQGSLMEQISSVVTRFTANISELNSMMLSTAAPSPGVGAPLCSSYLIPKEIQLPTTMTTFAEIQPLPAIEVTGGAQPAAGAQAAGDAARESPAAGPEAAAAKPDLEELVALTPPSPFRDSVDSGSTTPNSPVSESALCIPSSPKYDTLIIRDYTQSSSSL

Row | SMILES | inhibition at 100 µM (mGluR5; first mGluR5 row of Table 5) [%] | inhibition at 100 µM (mGluR5; second mGluR5 row of Table 5) [%] | substrate of GS (amidation to 2MeGln) [1] | distance moved in the novel cage (C57Bl/6 mice) | EC50 (GABAA α6β1γ2) [µM] | EC50 (GABAA α3β3γ2) [µM] | IC50 (GABAA α3β3γ2; read-out: IC50, functional antagonist receptor assay) [µM] | EC50 (GABAA α2β2γ2) [µM] | mortality after single dose (C57Bl/6 mice; mouse, in vivo)
1 | C[C@](N)(CCC(=O)O)C(=O)O [(S)-2MeGlu, (S)-2-methylglutamic acid] | 11 | -4 | substrates | significantly decreased | 280 | 725 | 978 | 530 | 
2 | C[C@@](N)(CCC(=O)O)C(=O)O [(R)-2MeGlu, (R)-2-methylglutamic acid] | -20 | -2 | not a substrate | significantly decreased | 772 | 959 |  | 660 | one mouse died
